Results: the kinase profiling compilation of Christmann-Franck et al. (2016)

Key:
Experiment in all cases: KINOMEscan competition binding
Details in all cases: compound 10.0 µM
[1] = target: DSTYK (human) (UniProt Q6XUX3)
[2] = target: STK38 (human) (UniProt Q15208)
[3] = target: CDKL3 (human) (UniProt Q8IVW4)
[4] = target: MAK (human) (UniProt P20794)
[5] = target: NEK4 (human) (UniProt P51957)
[6] = target: MAP3K6 (human) (UniProt O95382)
[7] = target: GRK1 (human) (UniProt Q15835)
[8] = system: EGFR (human), P00533 [G719S]
[9] = target: PIK3C2G (human) (UniProt O75747)
[10] = target: GRK7 (human) (UniProt Q8WTQ7)
[11] = target: PIP4K2C (human) (UniProt Q8TBX8)
[12] = target: PIP5K1C (human) (UniProt O60331)
[13] = target: CDK4 CCND3 (human) (UniProt P11802+P30281)
[14] = target: MATK (human) (UniProt P42679)
[15] = target: MAP3K15 (human) (UniProt Q6ZN16)
[16] = target: PIK3CA (human) (UniProt P42336)
[17] = target: TBK1 (human) (UniProt Q9UHD2)
[18] = target: CRK2 (P.falciparum) (UniProt P61075)
[19] = target: PKN3 (M.tuberculosis) (UniProt Q6P5Z2)
[20] = system: EGFR (human), P00533 [P753S; 747-752 del]
[21] = target: TRPM6 (human) (UniProt Q9BX84)
[22] = target: MAP3K1 (human) (UniProt Q13233)
[23] = target: CDK13 (human) (UniProt Q14004)
[24] = target: DYRK2 (human) (UniProt Q92630)
[25] = target: TIE1 (human) (UniProt P35590)
[26] = system: KIT (human), P10721 [V559D/T670I]
[27] = target: HIPK3 (human) (UniProt Q9H422)
[28] = target: SIK3 (human) (UniProt Q9Y2K2)
[29] = target: CSNK1A1 (human) (UniProt P48729)
[30] = system: PIK3CA (human), P42336 [I800L]
[31] = target: PRPF4B (human) (UniProt Q13523)
[32] = target: EGFR (human) (UniProt P00533)
[33] = target: MAP3K2 (human) (UniProt Q9Y2U5)
[34] = target: SNRK (human) (UniProt Q9NRH2)
[35] = target: OXSR1 (human) (UniProt O95747)
[36] = target: MAP2K7 (human) (UniProt O14733)
[37] = target: DDR1 (human) (UniProt Q08345)
[38] = target: NEK11 (human) (UniProt Q8NG66)

Chain of MAP3K2 (human) (Q9Y2U5 whole entry, looked up): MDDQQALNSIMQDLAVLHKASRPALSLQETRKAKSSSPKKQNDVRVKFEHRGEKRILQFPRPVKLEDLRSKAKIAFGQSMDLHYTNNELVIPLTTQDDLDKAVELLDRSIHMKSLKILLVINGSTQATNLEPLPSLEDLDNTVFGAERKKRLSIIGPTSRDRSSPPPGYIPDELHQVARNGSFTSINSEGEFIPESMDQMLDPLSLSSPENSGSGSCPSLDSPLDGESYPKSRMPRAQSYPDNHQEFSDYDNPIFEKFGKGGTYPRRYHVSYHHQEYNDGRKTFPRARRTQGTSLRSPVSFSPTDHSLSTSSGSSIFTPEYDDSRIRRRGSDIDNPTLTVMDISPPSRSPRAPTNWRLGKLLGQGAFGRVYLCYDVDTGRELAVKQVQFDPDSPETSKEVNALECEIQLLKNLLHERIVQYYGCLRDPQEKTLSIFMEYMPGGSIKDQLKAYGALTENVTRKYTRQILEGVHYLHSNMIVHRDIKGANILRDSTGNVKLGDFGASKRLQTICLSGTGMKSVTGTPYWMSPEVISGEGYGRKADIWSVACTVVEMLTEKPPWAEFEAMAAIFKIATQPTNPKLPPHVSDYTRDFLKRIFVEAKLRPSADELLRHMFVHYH
Chain of PKN3 (M.tuberculosis) (Q6P5Z2 whole entry, looked up): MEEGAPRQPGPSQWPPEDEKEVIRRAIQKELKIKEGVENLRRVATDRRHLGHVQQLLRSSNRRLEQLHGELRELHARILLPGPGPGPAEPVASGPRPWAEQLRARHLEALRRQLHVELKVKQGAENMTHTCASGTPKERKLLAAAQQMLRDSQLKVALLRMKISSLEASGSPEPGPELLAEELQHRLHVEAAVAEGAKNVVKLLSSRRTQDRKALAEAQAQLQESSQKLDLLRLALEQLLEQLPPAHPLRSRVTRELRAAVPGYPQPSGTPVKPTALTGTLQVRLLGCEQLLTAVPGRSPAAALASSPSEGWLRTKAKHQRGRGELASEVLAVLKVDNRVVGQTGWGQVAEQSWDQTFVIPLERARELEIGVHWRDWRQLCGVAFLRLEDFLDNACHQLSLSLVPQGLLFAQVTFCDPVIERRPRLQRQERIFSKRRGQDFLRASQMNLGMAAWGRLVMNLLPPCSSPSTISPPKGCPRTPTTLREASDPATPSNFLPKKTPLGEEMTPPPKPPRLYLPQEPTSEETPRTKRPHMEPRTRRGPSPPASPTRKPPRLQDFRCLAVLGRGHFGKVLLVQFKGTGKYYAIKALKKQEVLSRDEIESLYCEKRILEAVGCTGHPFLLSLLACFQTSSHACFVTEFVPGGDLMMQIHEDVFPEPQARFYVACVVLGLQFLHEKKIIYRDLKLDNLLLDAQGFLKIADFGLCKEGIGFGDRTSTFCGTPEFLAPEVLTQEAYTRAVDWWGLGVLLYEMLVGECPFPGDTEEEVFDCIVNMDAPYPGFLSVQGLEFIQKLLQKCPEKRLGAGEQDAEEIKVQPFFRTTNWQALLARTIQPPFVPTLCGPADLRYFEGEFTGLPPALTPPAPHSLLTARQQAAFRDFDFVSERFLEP
Chain of OXSR1 (human) (O95747 whole entry, looked up): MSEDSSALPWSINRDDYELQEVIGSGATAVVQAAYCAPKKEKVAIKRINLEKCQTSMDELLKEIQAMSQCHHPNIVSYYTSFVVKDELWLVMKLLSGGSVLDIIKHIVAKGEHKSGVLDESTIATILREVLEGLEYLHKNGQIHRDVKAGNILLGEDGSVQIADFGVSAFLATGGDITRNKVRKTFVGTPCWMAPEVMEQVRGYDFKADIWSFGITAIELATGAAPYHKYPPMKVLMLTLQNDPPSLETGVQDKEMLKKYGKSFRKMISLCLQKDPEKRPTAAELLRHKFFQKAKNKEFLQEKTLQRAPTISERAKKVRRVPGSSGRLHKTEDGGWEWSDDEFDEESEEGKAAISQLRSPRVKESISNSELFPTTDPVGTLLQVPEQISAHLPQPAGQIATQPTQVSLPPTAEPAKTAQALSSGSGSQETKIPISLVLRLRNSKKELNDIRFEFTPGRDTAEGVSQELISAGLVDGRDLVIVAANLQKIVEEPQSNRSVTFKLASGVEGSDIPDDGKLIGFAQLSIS
Chain of MATK (human) (P42679 whole entry, looked up): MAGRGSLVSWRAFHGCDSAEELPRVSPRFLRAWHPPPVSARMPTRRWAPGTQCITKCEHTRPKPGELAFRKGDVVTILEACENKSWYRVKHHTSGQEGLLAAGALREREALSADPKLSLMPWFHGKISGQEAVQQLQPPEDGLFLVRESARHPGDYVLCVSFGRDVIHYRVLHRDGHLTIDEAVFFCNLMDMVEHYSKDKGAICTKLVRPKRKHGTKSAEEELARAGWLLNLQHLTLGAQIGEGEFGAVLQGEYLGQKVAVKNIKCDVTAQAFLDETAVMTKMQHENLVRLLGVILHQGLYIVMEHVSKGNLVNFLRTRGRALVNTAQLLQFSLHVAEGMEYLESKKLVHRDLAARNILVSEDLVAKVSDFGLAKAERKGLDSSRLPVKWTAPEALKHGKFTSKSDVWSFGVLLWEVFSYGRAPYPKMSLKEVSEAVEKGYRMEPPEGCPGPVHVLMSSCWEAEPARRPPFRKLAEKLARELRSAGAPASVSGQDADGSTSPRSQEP
Chain of PIP5K1C (human) (O60331 whole entry, looked up): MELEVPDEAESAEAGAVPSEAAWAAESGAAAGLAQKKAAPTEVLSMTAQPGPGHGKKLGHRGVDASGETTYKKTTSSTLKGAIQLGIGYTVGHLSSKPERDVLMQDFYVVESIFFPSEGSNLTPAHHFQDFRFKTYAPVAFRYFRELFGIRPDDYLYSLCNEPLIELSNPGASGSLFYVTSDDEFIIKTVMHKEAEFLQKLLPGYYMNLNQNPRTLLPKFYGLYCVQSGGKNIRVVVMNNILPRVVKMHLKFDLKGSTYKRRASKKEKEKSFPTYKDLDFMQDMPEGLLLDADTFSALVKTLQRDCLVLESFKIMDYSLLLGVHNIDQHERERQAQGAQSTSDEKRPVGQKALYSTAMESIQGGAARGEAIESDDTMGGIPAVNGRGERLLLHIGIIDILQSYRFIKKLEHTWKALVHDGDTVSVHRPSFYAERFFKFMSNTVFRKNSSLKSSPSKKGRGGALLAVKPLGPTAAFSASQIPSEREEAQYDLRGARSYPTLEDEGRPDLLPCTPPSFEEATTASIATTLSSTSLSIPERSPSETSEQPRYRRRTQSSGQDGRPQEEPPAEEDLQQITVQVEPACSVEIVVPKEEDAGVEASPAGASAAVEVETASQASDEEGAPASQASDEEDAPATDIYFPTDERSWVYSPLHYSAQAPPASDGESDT
Chain of CDKL3 (human) (Q8IVW4 whole entry, looked up): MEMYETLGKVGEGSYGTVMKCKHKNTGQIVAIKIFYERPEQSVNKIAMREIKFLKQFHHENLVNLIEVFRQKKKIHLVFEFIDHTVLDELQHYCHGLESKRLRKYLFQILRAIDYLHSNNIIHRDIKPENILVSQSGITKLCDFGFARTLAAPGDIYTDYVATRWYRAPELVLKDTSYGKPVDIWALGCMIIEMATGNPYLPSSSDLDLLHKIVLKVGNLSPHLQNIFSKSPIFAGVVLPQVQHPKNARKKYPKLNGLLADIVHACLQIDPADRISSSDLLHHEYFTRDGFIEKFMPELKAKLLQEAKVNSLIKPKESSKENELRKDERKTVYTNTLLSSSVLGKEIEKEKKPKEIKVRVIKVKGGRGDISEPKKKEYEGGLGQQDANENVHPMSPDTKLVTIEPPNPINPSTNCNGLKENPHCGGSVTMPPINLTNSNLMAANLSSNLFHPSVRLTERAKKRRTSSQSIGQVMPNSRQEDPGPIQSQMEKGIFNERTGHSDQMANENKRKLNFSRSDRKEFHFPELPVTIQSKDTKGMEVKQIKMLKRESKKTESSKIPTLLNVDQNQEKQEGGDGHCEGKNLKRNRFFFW
Chain of CRK2 (P.falciparum) (P61075 whole entry, looked up): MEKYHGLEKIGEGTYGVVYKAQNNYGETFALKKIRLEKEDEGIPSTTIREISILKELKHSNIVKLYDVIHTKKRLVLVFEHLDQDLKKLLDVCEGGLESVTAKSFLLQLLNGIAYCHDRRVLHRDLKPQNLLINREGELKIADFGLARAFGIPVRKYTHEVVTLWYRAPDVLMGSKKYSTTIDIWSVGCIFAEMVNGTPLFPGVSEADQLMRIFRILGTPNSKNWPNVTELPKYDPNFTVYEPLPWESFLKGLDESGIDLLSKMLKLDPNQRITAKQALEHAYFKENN
Chain of DYRK2 (human) (Q92630 whole entry, looked up): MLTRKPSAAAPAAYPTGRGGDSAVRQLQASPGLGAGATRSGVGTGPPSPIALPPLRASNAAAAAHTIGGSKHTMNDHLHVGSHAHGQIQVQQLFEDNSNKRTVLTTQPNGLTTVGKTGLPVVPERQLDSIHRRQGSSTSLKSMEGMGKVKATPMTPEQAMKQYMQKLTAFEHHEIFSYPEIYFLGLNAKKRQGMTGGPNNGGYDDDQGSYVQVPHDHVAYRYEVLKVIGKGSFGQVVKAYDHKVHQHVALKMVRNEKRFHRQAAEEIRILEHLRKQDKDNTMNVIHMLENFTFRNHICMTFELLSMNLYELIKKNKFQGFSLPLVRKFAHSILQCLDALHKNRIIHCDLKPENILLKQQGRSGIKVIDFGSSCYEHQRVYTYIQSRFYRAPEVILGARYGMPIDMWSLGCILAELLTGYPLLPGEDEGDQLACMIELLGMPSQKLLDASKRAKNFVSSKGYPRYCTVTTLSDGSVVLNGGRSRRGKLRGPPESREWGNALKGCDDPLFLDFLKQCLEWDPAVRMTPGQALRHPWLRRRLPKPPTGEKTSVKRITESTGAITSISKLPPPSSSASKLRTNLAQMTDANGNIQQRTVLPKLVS

Row | Compound | kinase still bound, per cent of control [1] | kinase still bound, per cent of control [2] | kinase still bound, per cent of control [3] | kinase still bound, per cent of control [4] | kinase still bound, per cent of control [5] | kinase still bound, per cent of control [6] | kinase still bound, per cent of control [7] | kinase still bound, per cent of control [9] | kinase still bound, per cent of control [10] | kinase still bound, per cent of control [11] | kinase still bound, per cent of control [12] | kinase still bound, per cent of control [13] | kinase still bound, per cent of control [14] | kinase still bound, per cent of control [15] | kinase still bound, per cent of control [17] | kinase still bound, per cent of control [18] | kinase still bound, per cent of control [19] | kinase still bound, per cent of control [21] | kinase still bound, per cent of control [22] | kinase still bound, per cent of control [23] | other results
1 | CCCS(=O)(=O)Nc1ccc(F)c(C(=O)c2c[nH]c3ncc(-c4ccc(Cl)cc4)cc23)c1F | 22% | 100% | 100% | 100% | 95% | 100% | 100% | 62% | 93% | 100% | 44% | 82% | 100% | 100% | 100% | 97% | 78% | 100% | 91% | 100% | kinase still bound, per cent of control [8]: 50%; kinase still bound, per cent of control [16]: 94%; kinase still bound, per cent of control [20]: 78%; kinase still bound, per cent of control [24]: 100%; kinase still bound, per cent of control [25]: 38%; kinase still bound, per cent of control [26]: 60%; kinase still bound, per cent of control [27]: 100%; kinase still bound, per cent of control [28]: 100%; kinase still bound, per cent of control [29]: 90%; kinase still bound, per cent of control [30]: 93%; kinase still bound, per cent of control [31]: 92%; kinase still bound, per cent of control [32]: 70%; kinase still bound, per cent of control [33]: 100%; kinase still bound, per cent of control [34]: 100%; kinase still bound, per cent of control [35]: 95%
2 | CCC(=O)N1CCN(c2ccc(-n3c(=O)ccc4cnc5ccc(-c6cnc7ccccc7c6)cc5c43)cc2C(F)(F)F)CC1 | 28% | 100% | 92% | 68% | 86% | 100% | 99% | 11% | 100% | 58% | 80% | 87% | 97% | 100% | 93% | 97% | 64% | 100% | 92% | 80% | kinase still bound, per cent of control [36]: 100%; kinase still bound, per cent of control [37]: 100%; kinase still bound, per cent of control [24]: 86%; kinase still bound, per cent of control [25]: 100%; kinase still bound, per cent of control [27]: 86%; kinase still bound, per cent of control [28]: 89%; kinase still bound, per cent of control [38]: 65%; kinase still bound, per cent of control [30]: 0%; kinase still bound, per cent of control [31]: 100%; kinase still bound, per cent of control [32]: 85%; kinase still bound, per cent of control [33]: 62%; kinase still bound, per cent of control [34]: 60%; kinase still bound, per cent of control [35]: 100%
